No end group written: not given here.
Legend:
S. aureus (5) = conditions: Table 6B
Protocol: (§1) All the strains (see below) used in minimal inhibitory concentration (MIC) assays (Ovchinnikov et al., 2017, Front Microbiol., 8, p774, doi:10.3389/fmicb.2017.00774) were grown in BHI medium (Oxoid) at 30° C. without shaking. The tested strains were obtained from the LMG collection. […] NisinZ and micrococcin P1 were purified from source. Synthesized peptides were solubilized to concentrations of 10.0-0.1 mg/ml in 0.1% (vol/vol) trifluoroacetic acid and stored at −20° C. until use. Garvicin KS is made up of 3 peptides:
(§2) Bacteriocin activity was determined using a microtitre plate assay. The plates were incubated at 30° C. for 8 h and the growth was measured spectrophotometrically at 600 nm (A600) with 15 min intervals using SPECTROstarNano (BMG LABTECH, Germany). The MIC was defined as the bacteriocin concentration that inhibited the growth of the indicator strain by at least 50% in 200 μl culture (i.e., 50% of the turbidity of the control culture without bacteriocin).

E. faecium (2) = conditions: E. faecium (2), Table 6B
Protocol: as §1, §2

E. faecalis (2) = conditions: E. faecalis (2), Table 6B
Protocol: as §1, §2

Listeria spp. (3) = conditions: Listeria spp. (3), Table 6B
Protocol: as §1, §2

E. hirae (4) = conditions: E. hirae (4), Table 6B
Protocol: as §1, §2

E. faecium AH137 = conditions: E. faecium AH137, isolated from blood
In short: (§3)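 Indicator strains were grown in BHI medium at 30° C without shaking and challenged with bacteriocin in a microtiter plate assay. MIC is the lowest bacteriocin concentration that inhibits growth by at least 50%, judged as 50% of the turbidity of the bacteriocin-free control culture.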

E. faecium 130409015079* = conditions: E. faecium 130409015079, isolated from blood, Vancomycin-resistant
In short: as §3

Sa 3328 = assay: microbe, parasite or virus in culture; conditions: Sa 3328 (S. aureus)
Protocol: as §1, §2

S. pseudointermedius (3) = conditions: S. pseudointermedius (3), Table 6B
Protocol: as §1, §2

SP 4014 = assay: organism not typed; conditions: SP 4014 (S. pseudointermedius)
Protocol: as §1, §2

SP 4012 = assay: organism not typed; conditions: SP 4012 (S. pseudointermedius)
Protocol: as §1, §2

SP 4013 = assay: organism not typed; conditions: SP 4013 (S. pseudointermedius)
Protocol: as §1, §2

[1] = tested on: E. faecalis LMGT3358 resistant mutants
In short: as §3

Sequence | MIC (S. aureus (5)) | MIC (E. faecium (2)) | MIC (E. faecalis (2)) | MIC (Listeria spp. (3)) | MIC (E. hirae (4)) | MIC 50 (E. faecium AH137) | MIC 50 (E. faecium 130409015079*) | MIC (Sa 3328) | MIC (S. pseudointermedius (3)) | MIC (SP 4014) | MIC (SP 4012) | MIC (SP 4013) | resistance of lower resistance (LR) colonies compared to the WT ([1]; five LR colonies of E. faecalis) | resistance of highly resistant (HR) colonies compared to the WT ([1]; seven HR colonies of E. faecalis)
MKFKFNPTGTIVKKLTQYEIAWFKNKHGYYPWEIPRC [EntK1] | >25 µg/mL | <0.02 to 0.4 µg/mL | >25 µg/mL | >50 µg/mL | 0.2 to 0.8 µg/mL | 0.01 µM | 0.02 µM | – | – | – | – | – | – | –
MLAKIKAMIKKFPNPYTLAAKLTTYEINWYKQQYGRYPWERPVA [EntEJ97] | – | 0.8 to 1.6 µg/mL | 3.1 µg/mL | 12.5 to 25 µg/mL | 0.4 to 1.6 µg/mL | 0.075 µM | 0.037 µM | 6.25 µg/mL | 12.5 µg/mL | 12.5 µg/mL | 12.5 µg/mL | 12.5 µg/mL | 16-32 times | at least 500 times

Reference: patent publication US11648289B2, “Antibacterial method” (priority 2016, dated 2023)
